According to patent US12459940B2, “Oxazole compound as multi-targeted inhibitor of IRAK4 and BTK” (SHANGHAI FOSUN PHARMACEUTICAL INDUSTRIAL DEVELOPMENT CO., …, priority 2019, dated 2025):
Where two headings read alike, the source gives them in different places.

Experiments:
[1] = target: T1, human IRAK4 (Homo sapiens, UniProt Q9NWZ3); experiment: In vitro IRAK4 kinase activity, 33P isotope-labeled kinase activity assay (Reaction Biology Corp); assay type: biochemical
T1 construct: purchased Reaction Biology Corp
T1 sequence (Q9NWZ3 1-460): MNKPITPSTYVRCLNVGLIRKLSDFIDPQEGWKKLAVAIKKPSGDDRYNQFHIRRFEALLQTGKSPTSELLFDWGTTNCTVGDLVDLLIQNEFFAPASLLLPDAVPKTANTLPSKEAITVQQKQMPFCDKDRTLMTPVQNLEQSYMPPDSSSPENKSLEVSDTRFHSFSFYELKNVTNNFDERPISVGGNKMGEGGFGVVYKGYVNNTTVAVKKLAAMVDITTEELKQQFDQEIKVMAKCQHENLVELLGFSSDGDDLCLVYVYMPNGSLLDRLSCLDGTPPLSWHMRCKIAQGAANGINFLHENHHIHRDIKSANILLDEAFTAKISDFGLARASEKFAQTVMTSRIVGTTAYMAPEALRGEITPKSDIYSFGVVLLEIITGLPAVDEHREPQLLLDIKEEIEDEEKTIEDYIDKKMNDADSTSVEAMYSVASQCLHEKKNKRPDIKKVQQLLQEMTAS
Procedure: The IC50 values were determined using ^33P isotope-labeled kinase activity assay (Reaction Biology Corp) to evaluate the inhibitory ability of the tested compounds on human IRAK4.
(§1) Buffer conditions: 20 mM Hepes (pH 7.5), 10 mM MgCl2, 1 mM EGTA, 0.02% Brij35, 0.02 mg/mL BSA, 0.1 mM Na3VO4, 2 mM DTT, 1% DMSO.
Test procedure: At room temperature, the tested compound was dissolved in DMSO to prepare a 10 mM solution for later use. The substrate was dissolved in a newly prepared buffer solution, and the tested IRAK4 kinase was added thereto and mixed evenly. The DMSO solution dissolved with the tested compound was added to the above reaction mixture mixed evenly using acoustic technique (Echo 550). After incubation for 15 minutes, ^33P-ATP was added to initiate the reaction.

[2] = tested on: TNF-α production in THP-1 cells; experiment: THP-1 cytological TNFa ELISA assay (LPS-stimulated); assay type: cell-based; conditions: Homo sapiens, TNF-α in culture supernatant, 150 ng/mL LPS, 18 hours
Procedure: THP-1 human acute […] leukemia cells were purchased from ATCC (Cat #TIB-202) and cultured at 37° C. in 5% CO2 incubator. The composition of medium was RPMI1640 (Gibco, Cat #22400-105), and the supplementary compositions were 10% FBS (Gibco, Cat #10091148); 1% PenStrep (Gibco, Cat #15140); 0.05 mM 2-Mercaptoethanol (Sigma, Cat #M6250).
TNF-α Elisa kit was used to detect the content of TNF-α in cell culture supernatant samples. TNF-α was produced by stimulating THP-1 cells with 150 ng/mL LPS (Sigma, Cat #L6529).
THP-1 cells cultured normally at logarithmic growth stage were seeded in a 96-well plate (Corning #3599) at a certain concentration (1*10^5/100 μL) and then put into a cell incubator for incubation. After two hours, 16.7 μL of different concentrations of the compound to be tested (8*final concentration) were added and incubated in an incubator. After one hour, 16.7 μL of 1200 ng/mL LPS was added and incubated in an incubator. After 18 hours, the culture supernatant samples were collected by centrifugation, and the content of TNF-α could be detected by TNF-α Elisa kit. Finally, OD signals (OD450-OD570) were read on envision board reader.
The OD450-OD570 signal value was converted into a percentage inhibition rate. Inhibition rate %=(ZPE−sample)/(ZPE−HPE)*100.
“HPE” refers to the OD450-OD570 signal value of the control well without LPS stimulated cells, and “ZPE” refers to the OD450-OD570 signal value of the control well with LPS stimulated cells. The IC50 value of the compound was calculated by XLFit in the excel add-in. Y=Bottom+(Top−Bottom)/(1+(IC50/X)^HillSlope). Equation: […]

[3] = target: T2, human BTK (Homo sapiens, UniProt Q06187); experiment: In vitro BTK kinase activity, 33P isotope-labeled kinase activity assay (Reaction Biology Corp); assay type: biochemical; conditions: 33P-ATP, 2 hours at room temperature
T2 construct: purchased Reaction Biology Corp
T2 sequence (Q06187 whole entry): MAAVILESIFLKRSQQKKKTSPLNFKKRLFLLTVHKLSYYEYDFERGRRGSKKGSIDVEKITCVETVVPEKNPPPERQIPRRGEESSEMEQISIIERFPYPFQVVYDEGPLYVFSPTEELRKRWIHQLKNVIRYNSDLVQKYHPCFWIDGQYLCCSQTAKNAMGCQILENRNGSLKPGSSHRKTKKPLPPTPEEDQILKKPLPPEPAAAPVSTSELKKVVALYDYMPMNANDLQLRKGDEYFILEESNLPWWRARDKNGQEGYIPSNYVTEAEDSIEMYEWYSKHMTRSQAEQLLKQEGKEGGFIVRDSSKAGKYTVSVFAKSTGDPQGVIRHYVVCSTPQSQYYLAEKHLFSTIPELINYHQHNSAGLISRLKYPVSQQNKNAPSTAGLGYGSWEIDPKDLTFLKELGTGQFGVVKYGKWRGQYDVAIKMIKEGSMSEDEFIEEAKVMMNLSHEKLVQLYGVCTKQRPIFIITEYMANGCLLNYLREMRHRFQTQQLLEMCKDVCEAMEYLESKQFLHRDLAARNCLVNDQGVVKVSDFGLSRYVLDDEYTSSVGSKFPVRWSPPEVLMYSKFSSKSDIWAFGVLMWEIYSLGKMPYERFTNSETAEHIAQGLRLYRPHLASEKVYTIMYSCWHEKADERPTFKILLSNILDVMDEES
Procedure: The IC50 values were determined using ^33P isotope-labeled kinase activity assay (Reaction Biology Corp) to evaluate the inhibitory ability of the tested compounds on human BTK.
as §1
Test procedure: At room temperature, the tested compound was dissolved in DMSO to prepare a 10 mM solution for later use. The substrate was dissolved in a newly prepared buffer solution, and the tested BTK kinase was added thereto and mixed evenly. The compound dissolved in DMSO was added to the kinase reaction mixture through Echo 550 (Acoustic technology; Nanoliter range). After incubation for 20 minutes at room temperature, ^33P-ATP was added to initiate the reaction. The reaction was carried out at room temperature for 2 hours, and the radioactivity of the reaction liquid point was detected by filtration-binding method with P81 ion exchange filter paper. The kinase activity data were expressed by comparing the kinase activity of the group containing the tested compound with the kinase activity of the blank group (only containing DMSO), and the IC50 value was obtained by curve fitting by Prism4 software (GraphPad), the experimental results are shown in Table 10.

[4] = tested on: OCI-LY10 human B-cell lymphoma cells; experiment: OCI-LY10 cell proliferation inhibition (CellTiter-Glo); assay type: cell-based; conditions: OCI-Ly10, 72 h, treated for 3 days
Procedure: OCI-LY10 human B-cell lymphoma cells were cultured in a 37° C., 5% CO2 incubator. The composition of medium was IMDM (GIBCO, Cat #12440053); the supplementary compositions were 20% FBS (Hyclone, Cat #SH30084.03); 1% PenStrep (Thermo, Cat #SV30010).
The tumor cell lines OCI-LY10 and TMD8 were used to detect the effect of the compound on inhibiting tumor cell proliferation in vitro. The tumor cell line was cultured in a 37° C., 5% CO2 incubator according to the culture conditions shown, and passaged regularly, then the cells in the logarithmic growth phase were taken, counted, and spread in a 96-well plate (the cells in each well were adjusted to an appropriate concentration, a total of […] per well was added). After incubating overnight in a 37° C., 5% CO2 incubator, drugs with different concentration gradients (10 μL of drug solution was added) were added and treated for 3 days, then 50 μL of CellTiter-Glo working solution was added to each well, and the cell plate was wrapped with aluminum foil to avoid light. The culture plate was shaken on an orbital shaker for 2 minutes to induce cell lysis, and placed at room temperature for 10 minutes to stabilize the luminescence signal, then the luminescence signal was detected on the 2104 EnVision plate reader.
The Inhibition rate (IR) of the tested compound was calculated using the following formula: IR (%)=(1−(RLU compound−RLU blank control)/(RLU solvent control−RLU blank control))*100%.
The inhibition rates of different concentrations of the compounds were calculated in Excel, and then the inhibition curves were made by GraphPad Prism software and the related parameters were calculated, including the minimum inhibition rate, the maximum inhibition rate and IC50.

[5] = 33P-ATP, 120 minutes at room temperature, read-out: IRAK4/IC50

IC50 [1, 5] | IC50 [3] | IC50 [4] | Compound | IC50 [1] | IC50 [2]
1.1 nM | – | – | CC(=O)N1CCN(c2cc3nc(CCC(C)(C)O)cn3cc2NC(=O)c2coc(-c3ccnc(C)c3)n2)CC1 [WX005] | – | 256 nM
2 nM | – | – | Cc1cc(-c2nc(C(=O)Nc3cn4cc(CCC(C)(C)O)nc4cc3C3CC3)co2)ccn1 [WX007] | – | 240 nM
2.1 nM | 4.6 nM | – | Cc1cc(-c2nc(C(=O)Nc3cn4cc(CCC(C)(C)O)nc4cc3N3CCC(C)(C)CC3)co2)ccn1 [WX008] | – | –
2.4 nM | – | – | CC(C)(O)CCc1cn2cc(NC(=O)c3coc(-c4ccnc(C(F)(F)F)c4)n3)c(N3CCCCC3)cc2n1 [WX010] | – | 332 nM
1 nM | 6.9 nM | – | CC(C)(O)CCc1cn2cc(NC(=O)c3coc(-c4ccnc(C5CC5)c4)n3)c(N3CCCCC3)cc2n1 [WX012] | – | –
1.6 nM | – | – | Cc1cc(-c2nc(C(=O)Nc3cn4cc(CCC(=O)O)nc4cc3N3CCC(F)(F)CC3)co2)ccn1 [WX017] | – | 321 nM
8.4 nM | – | – | Cc1cc(-c2nc(C(=O)Nc3cn4cc(CCC(=O)O)nc4cc3-c3cccnc3)co2)ccn1 [WX023] | – | –
– | 30.7 nM | 349 nM | Cc1cc(-c2nc(C(=O)Nc3cn4cc(CCC(C)(C)O)nc4cc3-c3ccc(F)cc3)co2)ccn1 [WX026] | – | –
– | 39.6 nM | 96 nM | Cc1cc(-c2nc(C(=O)Nc3cn4cc(CCC(C)(C)O)nc4cc3-c3cccc(Cl)c3)co2)ccn1 [WX031] | – | –
– | 26.5 nM | 386 nM | Cc1cc(-c2nc(C(=O)Nc3cn4cc(CCC(C)(C)O)nc4cc3-c3cccs3)co2)ccn1 [WX032] | – | –
1.6 nM | 20.2 nM | – | [2H]c1c([2H])c([2H])c(-c2cc3nc(CCC(C)(C)O)cn3cc2NC(=O)c2coc(-c3ccnc(C)c3)n2)c([2H])c1[2H] [WX033] | – | –
– | 3.8 nM | – | Cc1cc(-c2nc(C(=O)Nc3cn4cc(CCS(C)(=O)=O)nc4cc3N3CCCCC3)co2)ccn1 [WX042] | – | –
1.9 nM | – | – | CC(C)(O)CCc1cn2cc(NC(=O)c3coc(-c4ccnc(C(N)=O)c4)n3)c(N3CCCCC3)cc2n1 [WX044] | – | –
2.5 nM | 43.1 nM | – | Cc1cc(-c2nc(C(=O)Nc3cn4cc(CCC(C)(C)O)nc4cc3N3CCC(C(=O)O)CC3)co2)ccn1 [WX046] | – | –

Second part, the compound before the results:

Compound | IC50 [1, 5] | IC50 [3] | IC50 [4] | IC50 [1] | IC50 [2]
Cc1cc(-c2nc(C(=O)Nc3cn4cc(CCC(C)(C)O)nc4cc3N3CCOCC3)co2)ccn1 [WX002] | – | – | – | 1.2 nM | –
Cc1cc(-c2nc(C(=O)Nc3cn4cc(CCC(C)(C)O)nc4cc3N3CCNCC3)co2)ccn1 [WX003] | – | – | – | 2.2 nM | 557 nM
COC(=O)N1CCN(c2cc3nc(CCC(C)(C)O)cn3cc2NC(=O)c2coc(-c3ccnc(C)c3)n2)CC1 [WX004] | – | – | – | 1.3 nM | 77 nM
Cc1cc(-c2nc(C(=O)Nc3cn4cc(CCC(C)(C)O)nc4cc3N3CCC(O)CC3)co2)ccn1 [WX006] | – | 47.5 nM | – | 1.2 nM | 107 nM
Cc1cc(-c2nc(C(=O)Nc3cn4cc(CCC(C)(C)O)nc4cc3N3CCC(F)(F)CC3)co2)ccn1 [WX009] | – | 46 nM | – | 0.7 nM | –
CC(C)c1cc(-c2nc(C(=O)Nc3cn4cc(CCC(C)(C)O)nc4cc3N3CCCCC3)co2)ccn1 [WX011] | – | 23.6 nM | – | 1.5 nM | 140 nM
Cc1cc(-c2nc(C(=O)Nc3cn4cc(CCC(C)(C)O)nc4cc3N3CCC(CO)CC3)co2)ccn1 [WX013] | 0.2 nM | 1.4 nM | – | – | –
Cc1cc(-c2nc(C(=O)Nc3cn4cc(CCC(C)(C)O)nc4cc3N3CCC(CN)CC3)co2)ccn1 [WX014] | – | 25.7 nM | – | 0.9 nM | –
CC(C)(O)CCc1cn2cc(NC(=O)c3coc(-c4ccnc(C#N)c4)n3)c(N3CCCCC3)cc2n1 [WX015] | – | 6.4 nM | – | 0.4 nM | –
Cc1cc(-c2nc(C(=O)Nc3cn4cc(CCC(=O)O)nc4cc3N3CCCCC3)co2)ccn1 [WX018] | – | 47.5 nM | – | 0.9 nM | 104 nM
Cc1cc(-c2nc(C(=O)Nc3cn4cc(CCC(=O)O)nc4cc3N3CCC(CO)CC3)co2)ccn1 [WX020] | – | 8.5 nM | – | 0.5 nM | –
Cc1cc(-c2nc(C(=O)Nc3cn4cc(CCC(C)(C)O)nc4cc3C3CCCCC3)co2)ccn1 [WX022] | – | 43.1 nM | – | 0.7 nM | –
Cc1cc(-c2nc(C(=O)Nc3cn4cc(CCC(C)(C)O)nc4cc3-c3ccccc3F)co2)ccn1 [WX024] | – | 30.5 nM | 208 nM | 0.7 nM | 13 nM
Cc1cc(-c2nc(C(=O)Nc3cn4cc(CCC(C)(C)O)nc4cc3-c3cccc(F)c3)co2)ccn1 [WX025] | – | 21.8 nM | 94 nM | 0.7 nM | 21 nM
Cc1cc(-c2nc(C(=O)Nc3cn4cc(CCC(C)(C)O)nc4cc3-c3ccccc3C(N)=O)co2)ccn1 [WX027] | 11 nM | – | – | – | –
Cc1cc(-c2nc(C(=O)Nc3cn4cc(CCC(C)(C)O)nc4cc3-c3c(F)cccc3F)co2)ccn1 [WX029] | – | 24.2 nM | 289 nM | – | –
Cc1cc(-c2nc(C(=O)Nc3cn4cc(CCC(C)(C)O)nc4cc3-c3ccc(Cl)cc3)co2)ccn1 [WX030] | – | – | 209 nM | – | –
Cc1cc(-c2nc(C(=O)Nc3cn4cc(CCC(=O)O)nc4cc3-c3ccccc3)co2)ccn1 [WX039] | 1 nM | 29 nM | – | – | –
